Source: the supplement of paper PMC7840683
Counter-ions that a name gives are not always drawn.

Tested on: HepaRG
Assay: LDH release cytotoxicity, % of total lysis control; higher = more cytotoxic
Conditions: 48 h
Summary of the method: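 The CytoTox-ONE kit was used to read LDH in 50 µL spent medium as resorufin fluorescence on a Tecan Safire, with 0.1% Triton X added to total lysis wells. Beforehand, single-lot HepaRG cells on collagen I-coated 96-well plates had been exposed in duplicate for 48 h to eight-point half-log series (top 100 µM) in serum-free induction medium containing 0.5% DMSO. Percent cytotoxicity was normalized against on-plate vehicle and total lysis controls and averaged over duplicates.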

O=C(O)C(Cl)(Cl)Cl [Sodium trichloroacetate]
Conditions | LDH release cytotoxicity [%]
0.03162 µM | -0.75
0.1 µM | -0.518
0.3162278 µM | -1.06
1 µM | -0.987
3.16228 µM | -1.23
10 µM | -0.588
31.6228 µM | 0.00119
100 µM | 0.935

Cc1ccc(S(=O)(=O)O)cc1C [Sodium xylenesulfonate]
Conditions | LDH release cytotoxicity [%]
0.03162 µM | -0.646
0.1 µM | -1.44
0.3162278 µM | -1.14
1 µM | -1.21
3.16228 µM | -1.1
10 µM | -1.23
31.6228 µM | -1.25
100 µM | 1.23

CCCCCCCCC=CCCCCCCCC(=O)OCC(O)C1OCC(O)C1O (centres undefined) [Sorbitan, mono-(9Z)-9-octadecenoate]
Conditions | LDH release cytotoxicity [%]
0.03162 µM | -0.746
0.1 µM | -0.105
0.3162278 µM | -1.38
1 µM | -1.65
3.16228 µM | -1.48
10 µM | -1.08
31.6228 µM | -0.835
100 µM | -0.317

CCC(C)(C)C(=O)OC1=C(c2ccc(Cl)cc2Cl)C(=O)OC12CCCCC2 [Spirodiclofen]
Conditions | LDH release cytotoxicity [%]
0.03162 µM | -0.904
0.1 µM | -1.21
0.3162278 µM | -0.287
1 µM | -1.32
3.16228 µM | -1.74
10 µM | 0.0779
31.6228 µM | -1.05
100 µM | 0.552

CC(=O)SC1CC2=CC(=O)CCC2(C)C2CCC3(C)C(CCC34CCC(=O)O4)C12 (centres undefined) [Spironolactone]
Conditions | LDH release cytotoxicity [%]
0.03162 µM | 0.148
0.1 µM | -0.279
0.3162278 µM | -1.43
1 µM | -1.93
3.16228 µM | -1.42
10 µM | -1.46
31.6228 µM | -0.441
100 µM | 13.5

CCCN(CC)CC1COC2(CCC(C(C)(C)C)CC2)O1 (centres undefined) [Spiroxamine]
Conditions | LDH release cytotoxicity [%]
0.03162 µM | -0.782
0.1 µM | -1.02
0.3162278 µM | 0.233
1 µM | -0.292
3.16228 µM | 0.829
10 µM | 0.738
31.6228 µM | 1.08
100 µM | 1.62

Cc1cn(C2C=CC(CO)O2)c(=O)[nH]c1=O (centres undefined) [Stavudine]
Conditions | LDH release cytotoxicity [%]
0.03162 µM | -0.726
0.1 µM | -0.277
0.3162278 µM | 0.0542
1 µM | 0.024
3.16228 µM | -0.127
10 µM | 0.3
31.6228 µM | 0.433
100 µM | 2.36

c1ccc(C2CO2)cc1 (centres undefined) [Styrene oxide]
Conditions | LDH release cytotoxicity [%]
0.03162 µM | -1.36
0.1 µM | -1.15
0.3162278 µM | -1.2
1 µM | -1.64
3.16228 µM | -1.36
10 µM | -0.823
31.6228 µM | -0.175
100 µM | 0.415

CC(=O)OCC1OC(OC2(COC(C)=O)OC(COC(C)=O)C(OC(C)=O)C2OC(C)=O)C(OC(C)=O)C(OC(C)=O)C1OC(C)=O (centres undefined) [Sucrose octaacetate]
Conditions | LDH release cytotoxicity [%]
0.0238752 µM | -0.662
0.0755 µM | -0.298
0.238752 µM | -0.188
0.755 µM | -1.45
2.38752 µM | -0.463
7.55 µM | -0.261
23.8752 µM | -0.0769
75.5 µM | 1.89

OCC1OC(OC2(CO)OC(CO)C(O)C2O)C(O)C(O)C1O (centres undefined) [Sucrose]
Conditions | LDH release cytotoxicity [%]
0.03162 µM | -1.56
0.1 µM | -2.84
0.3162278 µM | -1.3
1 µM | -1.84
3.16228 µM | -2
10 µM | -0.48
31.6228 µM | -0.542
100 µM | 1.54

O=C(O)c1cc(N=Nc2ccc(S(=O)(=O)Nc3ccccn3)cc2)ccc1O [Sulfasalazine]
Conditions | LDH release cytotoxicity [%]
0.03162 µM | -0.789
0.1 µM | -1.61
0.3162278 µM | -0.498
1 µM | -0.487
3.16228 µM | -0.767
10 µM | 0.367
31.6228 µM | 0.113
100 µM | 1.04

Cc1nn(-c2cc(NS(C)(=O)=O)c(Cl)cc2Cl)c(=O)n1C(F)F [Sulfentrazone]
Conditions | LDH release cytotoxicity [%]
0.03162 µM | -1.66
0.1 µM | -1.99
0.3162278 µM | -2.52
1 µM | -2.37
3.16228 µM | -0.982
10 µM | -1.17
31.6228 µM | -1.23
100 µM | 0.713

CCc1c(C(=O)NN2CCCCC2)nn(-c2ccc(Cl)cc2Cl)c1-c1ccc(Br)cc1 [Surinabant]
Conditions | LDH release cytotoxicity [%]
0.03162 µM | -0.47
0.1 µM | -0.954
0.3162278 µM | -1.13
1 µM | -1.44
3.16228 µM | -0.402
10 µM | 2.16
31.6228 µM | 15.8
100 µM | 77.6

O=c1n(Cl)c(=O)n(Cl)c(=O)n1Cl [Symclosene]
Conditions | LDH release cytotoxicity [%]
0.03162 µM | -1.22
0.1 µM | -0.82
0.3162278 µM | -0.254
1 µM | -0.453
3.16228 µM | 0.284
10 µM | 1.48
31.6228 µM | 0.324
100 µM | 2.44

CCC(=C(c1ccccc1)c1ccc(OCCN(C)C)cc1)c1ccccc1 [Tamoxifen citrate]
Conditions | LDH release cytotoxicity [%]
0.02893 µM | -0.702
0.0915 µM | -0.863
0.289348 µM | -1.43
0.915 µM | -1.01
2.89348 µM | 0.0489
9.15 µM | 0.563
28.9348 µM | 9.57
91.5 µM | 88.7

CCC(=C(c1ccccc1)c1ccc(OCCN(C)C)cc1)c1ccccc1 [Tamoxifen]
Conditions | LDH release cytotoxicity [%]
0.03162 µM | -1.09
0.1 µM | -0.968
0.3162278 µM | -1.82
1 µM | -2.26
3.16228 µM | -0.69
10 µM | -0.919
31.6228 µM | 4.6
100 µM | 79.7

O=C(OC[C@H]1O[C@@H](OC(=O)c2cc(O)c(O)c(OC(=O)c3cc(O)c(O)c(O)c3)c2)[C@H](OC(=O)c2cc(O)c(O)c(OC(=O)c3cc(O)c(O)c(O)c3)c2)[C@@H](OC(=O)c2cc(O)c(O)c(OC(=O)c3cc(O)c(O)c(O)c3)c2)[C@@H]1OC(=O)c1cc(O)c(O)c(OC(=O)c2cc(O)c(O)c(O)c2)c1)c1cc(O)c(O)c(OC(=O)c2cc(O)c(O)c(O)c2)c1 [Tannic acid]
Conditions | LDH release cytotoxicity [%]
0.0096449 µM | -1.06
0.0305 µM | -1.19
0.0964495 µM | -2.39
0.305 µM | -2.34
0.964495 µM | -3.92
3.05 µM | -4.5
9.64495 µM | -0.0405
30.5 µM | 5.317

CC(C)(C)C(O)(CCc1ccc(Cl)cc1)Cn1cncn1 (centres undefined) [Tebuconazole]
Conditions | LDH release cytotoxicity [%]
0.03162 µM | -1.4
0.1 µM | -0.0947
0.3162278 µM | -1.08
1 µM | -1.1
3.16228 µM | -0.155
10 µM | -0.0217
31.6228 µM | 1.4
100 µM | 16.5
